From US10351546B2, “Pyridin-3-yl acetic acid derivatives as inhibitors of human immunodeficiency virus replication” (priority 2015, dated 2019)
Like-named read-outs stand apart in the source and are kept apart here.

System: NL-RLuc virus
Assay: Inhibition of HIV replication (NL-RLuc luciferase reporter virus in MT-2 cells)
Format: cell-based
Settings: Human immunodeficiency virus 1, MT2, 120 h
How it was run: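 MT-2 cells were infected with NL4-3-derived virus carrying Renilla luciferase in place of part of nef, in RPMI/10% FBS, with serial compound dilutions. Luciferase read after 5 days of multicycle replication. EC50 from the median effect equation, at least 2 experiments.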

Cc1cc(N2CCc3cc(-c4c(N)nc(C)c([C@H](OC(C)(C)C)C(=O)O)c4N4CCC(C)(C)CC4)ccc3C2)ncn1 [Example 148, (S)-2-(6-Amino-4-(4,4-dimethylpiperidin-1-yl)-2-methyl-5-(2-(6-methylpyrimidin-4-yl)-1,2,3,4-tetrahydroisoquinolin-6-yl)pyridin-3-yl)-2-(tert-butoxy)acetic acid] was tested, and the EC50 (read-out: Activity) was less than 0.1 µM.

Cc1nc(N)c(-c2ccc3c(c2)CCN(c2ncnc4c2cnn4C)C3)c(N2CCC(C)(C)CC2)c1[C@H](OC(C)(C)C)C(=O)O [Example 149, (S)-2-(6-Amino-4-(4,4-dimethylpiperidin-1-yl)-2-methyl-5-(2-(1-methyl-1H-pyrazolo[3,4-d]pyrimidin-4-yl)-1,2,3,4-tetrahydroisoquinolin-6-yl)pyridin-3-yl)-2-(tert-butoxy)acetic acid] was tested, and the EC50 (read-out: Activity) was less than 0.1 µM.

With Cc1cc(F)ccc1CN1CCc2cc(-c3c(COCC4COC4)nc(C)c([C@H](OC(C)(C)C)C(=O)O)c3N3CCC(C)(C)CC3)ccc2C1 [Example 154, (S)-2-(tert-Butoxy)-2-(4-(4,4-dimethylpiperidin-1-yl)-5-(2-(4-fluoro-2-methylbenzyl)-1,2,3,4-tetrahydroisoquinolin-6-yl)-2-methyl-6-((oxetan-3-ylmethoxy)methyl)pyridin-3-yl)acetic acid] the EC50 (read-out: Activity) was less than 0.1 µM.

Cc1cc(F)ccc1CN1CCc2cc(-c3c(COC4CCOCC4)nc(C)c([C@H](OC(C)(C)C)C(=O)O)c3N3CCC(C)(C)CC3)ccc2C1 [Example 155, (S)-2-(tert-Butoxy)-2-(4-(4,4-dimethylpiperidin-1-yl)-5-(2-(4-fluoro-2-methylbenzyl)-1,2,3,4-tetrahydroisoquinolin-6-yl)-2-methyl-6-(((tetrahydro-2H-pyran-4-yl)oxy)methyl)pyridin-3-yl)acetic acid] gave an EC50 (read-out: Activity) of less than 0.1 µM and an EC50 (read-out: EC50 μM) of 0.001 µM.

Work on CCOCc1nc(C)c([C@H](OC(C)(C)C)C(=O)O)c(N2CCC(C)(C)CC2)c1-c1ccc2c(c1)CCN(Cc1ccc(F)cc1C)C2 [Example 156, (S)-2-(tert-Butoxy)-2-(4-(4,4-dimethylpiperidin-1-yl)-6-(ethoxymethyl)-5-(2-(4-fluoro-2-methylbenzyl)-1,2,3,4-tetrahydroisoquinolin-6-yl)-2-methylpyridin-3-yl)acetic acid] yielded an EC50 (read-out: Activity) of less than 0.1 µM.

COCc1nc(C)c([C@H](OC(C)(C)C)C(=O)O)c(N2CCC(C)(C)CC2)c1-c1ccc2c(c1)CCN(Cc1ccc(F)cc1C)C2 [Example 157, (S)-2-(tert-Butoxy)-2-(4-(4,4-dimethylpiperidin-1-yl)-5-(2-(4-fluoro-2-methylbenzyl)-1,2,3,4-tetrahydroisoquinolin-6-yl)-6-(methoxymethyl)-2-methylpyridin-3-yl)acetic acid] was tested, and the EC50 (read-out: Activity) was less than 0.1 µM.

Cc1cc(F)ccc1CN1CCc2cc(-c3c(COC(C)C)nc(C)c([C@H](OC(C)(C)C)C(=O)O)c3N3CCC(C)(C)CC3)ccc2C1 [Example 158, (S)-2-(tert-Butoxy)-2-(4-(4,4-dimethylpiperidin-1-yl)-5-(2-(4-fluoro-2-methylbenzyl)-1,2,3,4-tetrahydroisoquinolin-6-yl)-6-(isopropoxymethyl)-2-methylpyridin-3-yl)acetic acid] gave an EC50 (read-out: Activity) of less than 0.1 µM.

In the case of Cc1cc(F)ccc1CN1CCc2cc(-c3c(COCC4CCOCC4)nc(C)c([C@H](OC(C)(C)C)C(=O)O)c3N3CCC(C)(C)CC3)ccc2C1 [Example 159, (S)-2-(tert-Butoxy)-2-(4-(4,4-dimethylpiperidin-1-yl)-5-(2-(4-fluoro-2-methylbenzyl)-1,2,3,4-tetrahydroisoquinolin-6-yl)-2-methyl-6-(((tetrahydro-2H-pyran-4-yl)methoxy)methyl)pyridin-3-yl)acetic acid], the EC50 (read-out: Activity) is reported as less than 0.1 µM.

For CCOCCOCc1nc(C)c([C@H](OC(C)(C)C)C(=O)O)c(N2CCC(C)(C)CC2)c1-c1ccc2c(c1)CCN(Cc1ccc(F)cc1C)C2 [Example 160, (S)-2-(tert-Butoxy)-2-(4-(4,4-dimethylpiperidin-1-yl)-6-((2-ethoxyethoxy)methyl)-5-(2-(4-fluoro-2-methylbenzyl)-1,2,3,4-tetrahydroisoquinolin-6-yl)-2-methylpyridin-3-yl)acetic acid], the EC50 (read-out: Activity) was less than 0.1 µM.

C#Cc1nc(C)c([C@H](OC(C)(C)C)C(=O)O)c(N2CCC(C)(C)CC2)c1-c1ccc(OCCc2ccc(F)cc2)cc1 [Example 161, (S)-2-(tert-Butoxy)-2-(4-(4,4-dimethylpiperidin-1-yl)-6-ethynyl-5-(4-(4-fluorophenethoxy)phenyl)-2-methylpyridin-3-yl)acetic acid] gave an EC50 (read-out: Activity) of less than 0.1 µM.

With Cc1nc(C#N)c(-c2ccc(OCCc3ccc(F)cc3)cc2)c(N2CCC(C)(C)CC2)c1[C@H](OC(C)(C)C)C(=O)O [Example 162, (S)-2-(tert-Butoxy)-2-(6-cyano-4-(4,4-dimethylpiperidin-1-yl)-5-(4-(4-fluorophenethoxy)phenyl)-2-methylpyridin-3-yl)acetic acid] the EC50 (read-out: Activity) was less than 0.1 µM and the EC50 (read-out: EC50 μM) was 0.008 µM.

For CC#Cc1nc(C)c([C@H](OC(C)(C)C)C(=O)O)c(N2CCC(C)(C)CC2)c1-c1ccc(OCCc2ccc(F)cc2)cc1 [Example 163, (S)-2-(tert-butoxy)-2-(4-(4,4-dimethylpiperidin-1-yl)-5-(4-(4-fluorophenethoxy)phenyl)-2-methyl-6-(prop-1-yn-1-yl)pyridin-3-yl)acetic acid], the EC50 (read-out: Activity) was less than 0.1 µM.

Cc1cccc(Cl)c1CN1CCc2cc(-c3c(N)nc(C)c([C@H](OC(C)(C)C)C(=O)O)c3N3CCC(C)(C)CC3)ccc2C1 [Example 164, (S)-2-(6-Amino-5-(2-(2-chloro-6-methylbenzyl)-1,2,3,4-tetrahydroisoquinolin-6-yl)-4-(4,4-dimethylpiperidin-1-yl)-2-methylpyridin-3-yl)-2-(tert-butoxy)acetic acid] was tested, and the EC50 (read-out: Activity) was less than 0.1 µM.

Molecule Cc1cccc(Cl)c1CN1CCc2cc(-c3c(CO)nc(C)c([C@H](OC(C)(C)C)C(=O)O)c3N3CCC(C)(C)CC3)ccc2C1 [Example 165, (S)-2-(tert-butoxy)-2-(5-(2-(2-chloro-6-methylbenzyl)-1,2,3,4-tetrahydroisoquinolin-6-yl)-4-(4,4-dimethylpiperidin-1-yl)-6-(hydroxymethyl)-2-methylpyridin-3-yl)acetic acid] has an EC50 (read-out: Activity) of less than 0.1 µM.

Cc1cccc(Cl)c1CN1CCc2cc(-c3c(C#N)nc(C)c([C@H](OC(C)(C)C)C(=O)O)c3N3CCC(C)(C)CC3)ccc2C1 [Example 166, (S)-2-(tert-butoxy)-2-(5-(2-(2-chloro-6-methylbenzyl)-1,2,3,4-tetrahydroisoquinolin-6-yl)-6-cyano-4-(4,4-dimethylpiperidin-1-yl)-2-methylpyridin-3-yl)acetic acid] was tested, and the EC50 (read-out: Activity) was less than 0.1 µM.

Work on Cc1nc(N)c(-c2ccc3c(c2)CCN(c2ncnc4c2oc2ccccc24)C3)c(N2CCC(C)(C)CC2)c1[C@H](OC(C)(C)C)C(=O)O [Example 167, (S)-2-(6-amino-5-(2-(benzofuro[3,2-d]pyrimidin-4-yl)-1,2,3,4-tetrahydroisoquinolin-6-yl)-4-(4,4-dimethylpiperidin-1-yl)-2-methylpyridin-3-yl)-2-(tert-butoxy)acetic acid] yielded an EC50 (read-out: Activity) of less than 0.1 µM.

Molecule Cc1nc(CO)c(-c2ccc3c(c2)CCN(c2ncnc4c2oc2ccccc24)C3)c(N2CCC(C)(C)CC2)c1[C@H](OC(C)(C)C)C(=O)O [Example 168, (S)-2-(5-(2-(Benzofuro[3,2-d]pyrimidin-4-yl)-1,2,3,4-tetrahydroisoquinolin-6-yl)-4-(4,4-dimethylpiperidin-1-yl)-6-(hydroxymethyl)-2-methylpyridin-3-yl)-2-(tert-butoxy)acetic acid] has an EC50 (read-out: Activity) of less than 0.1 µM and an EC50 (read-out: EC50 μM) of 0.001 µM.

Work on Cc1nc(-c2cn(C)nn2)c(-c2ccc(OCCc3ccc(F)cc3)cc2)c(N2CCC(C)(C)CC2)c1[C@H](OC(C)(C)C)C(=O)O [Example 169, (S)-2-(tert-butoxy)-2-(4-(4,4-dimethylpiperidin-1-yl)-5-(4-(4-fluorophenethoxy)phenyl)-2-methyl-6-(1-methyl-1H-1,2,3-triazol-4-yl)pyridin-3-yl)acetic acid] yielded an EC50 (read-out: Activity) of less than 0.1 µM.

Work on Cc1nc(Cc2ccc(F)cc2)c(-c2ccc(OCCc3ccc(F)cc3)cc2)c(N2CCC(C)(C)CC2)c1[C@H](OC(C)(C)C)C(=O)O [Example 170, (S)-2-(tert-Butoxy)-2-(4-(4,4-dimethylpiperidin-1-yl)-6-(4-fluorobenzyl)-5-(4-(4-fluorophenethoxy)phenyl)-2-methylpyridin-3-yl)acetic acid] yielded an EC50 (read-out: Activity) of less than 0.1 µM.

Work on Cc1nc(CC2=CCCCC2)c(-c2ccc(OCCc3ccc(F)cc3)cc2)c(N2CCC(C)(C)CC2)c1[C@H](OC(C)(C)C)C(=O)O [Example 171, (S)-2-(tert-Butoxy)-2-(6-(cyclohex-1-en-1-ylmethyl)-4-(4,4-dimethylpiperidin-1-yl)-5-(4-(4-fluorophenethoxy)phenyl)-2-methylpyridin-3-yl)acetic acid] yielded an EC50 (read-out: Activity) of less than 0.1 µM.

Cc1nc(CC2CCCCC2)c(-c2ccc(OCCc3ccc(F)cc3)cc2)c(N2CCC(C)(C)CC2)c1[C@H](OC(C)(C)C)C(=O)O [Example 172, (S)-2-(tert-Butoxy)-2-(6-(cyclohexylmethyl)-4-(4,4-dimethylpiperidin-1-yl)-5-(4-(4-fluorophenethoxy)phenyl)-2-methylpyridin-3-yl)acetic acid] gave an EC50 (read-out: Activity) of less than 0.1 µM.

Molecule Cc1nc(CC2CCC(C)(C)CC2)c(-c2ccc(OCCc3ccc(F)cc3)cc2)c(N2CCC(C)(C)CC2)c1[C@H](OC(C)(C)C)C(=O)O [Example 173, (S)-2-(tert-Butoxy)-2-(6-((4,4-dimethylcyclohexyl)methyl)-4-(4,4-dimethylpiperidin-1-yl)-5-(4-(4-fluorophenethoxy)phenyl)-2-methylpyridin-3-yl)acetic acid] has an EC50 (read-out: Activity) of less than 0.1 µM and an EC50 (read-out: EC50 μM) of 0.035 µM.

Molecule Cc1nc(CNC23CC(C2)C3)c(-c2ccc(OCCc3ccc(F)cc3)cc2)c(N2CCC(C)(C)CC2)c1[C@H](OC(C)(C)C)C(=O)O [Example 174, (S)-2-(6-((Bicyclo[1.1.1]pentan-1-ylamino)methyl)-4-(4,4-dimethylpiperidin-1-yl)-5-(4-(4-fluorophenethoxy)phenyl)-2-methylpyridin-3-yl)-2-(tert-butoxy)acetic acid] has an EC50 (read-out: Activity) of less than 0.1 µM.
